Assays:
Assay type in all cases: cell-based
[1] = test system: mature adipocytes (3T3-L1 cells); experiment: Glucose uptake enhancement inhibited by cytochalasin B (glucose transporter inhibitor)
Description: The influence of cytochalasin B on 2-deoxyglucose uptake into mature adipocytes stimulated with the sample in the adipocytes was tested in accordance with the method described in Example 17 on whether or not the enhancing action of the ethanol extract fraction from Polygonum hydropiper obtained in Example 15 on glucose uptake is inhibited by cytochalasin B, which is an inhibitor of a glucose transporter.
Specifically, as a sample, there was set a group with addition of a dimethyl sulfoxide solution of the ethanol extract fraction from Polygonum hydropiper so as to have a final concentration of 0.05% to a well (treatment for a short period of time). There were set a group without addition of the sample as a negative control, and a group with addition of insulin so as to have a final concentration of 1 μg/mL as a positive control. Furthermore, in each group, there was set a group with addition of cytochalasin B (manufactured by Nacalai Tesque, Inc., 10435-81) so as to have a final concentration of 40 μM at the same time as the time of addition of insulin or the sample. Thereafter, the amount of 2-deoxy-[1,2^3H(N)]-glucose taken into the adipocytes was determined in the same manner.

[2] = test system: Preadipocyte cell line 3T3-L1; experiment: Induction of differentiation into adipocytes, determined as amount of biosynthesis of triglyceride; details: positive control, 4 μl then 2 μl of a 5 mg/ml aqueous solution per 2 ml well
Text: There have been known that insulin enhances induction of differentiation of preadipocytes into adipocytes, and that glucose uptake takes place in matured adipocytes thereby accumulating triglyceride in the adipocytes (J. Biol. Chem., Vol. 253, No. 20, P7570-7578 (1978)). Specifically, utilizing this method, an insulin-mimetic action of a test substance can be determined by administering a test substance in place of insulin, and determining differentiation into an adipocyte and the amount of triglyceride in the adipocytes.
The induction of differentiation into adipocytes was carried out by partially modifying the above-mentioned method of Rubin C. S. et al. (J. Biol. Chem., Vol. 253, No. 20, P7570-7578 (1978)). Preadipocyte cell line 3T3-L1 (ATCC CCL-92.1) was suspended in a 10% fetal bovine serum (manufactured by GIBCO)-containing Dulbecco's modified Eagle's medium (manufactured by Sigma, D6046) containing 200 μM ascorbic acid (hereinafter referred to as A-D-MEM medium) so as to have a density of 4×10^3 cells/ml, and the suspension was put in each well of a 12-well microtiter plate in an amount of 2 ml per well. The cells were cultured at 37° C. for 7 days in the presence of 5% carbon dioxide gas. […]
The amount of triglyceride in the adipocytes was determined as an index for inducing differentiation into matured adipocytes, and as evaluation of insulin-mimetic action. […]

[3] = test system: mature adipocytes (3T3-L1 cells); experiment: Enhancing action on glucose uptake: 2-deoxy-[1,2-3H(N)]-glucose uptake into mature adipocytes; details: positive control, final concentration 1 μg/mL, added when 45 minutes passed; vs negative control
Text: In addition, there have been known that insulin has an enhancing action on glucose uptake into a cell, and that glucose uptake into the cell is enhanced by the action of insulin in a matured adipocyte (J. Biol. Chem., Vol. 253, No. 20, P7579-7583 (1978)). Specifically, utilizing this method, an insulin-mimetic action of a test substance can be determined by administering a test substance in place of insulin, and determining the amount of glucose uptake into a matured adipocyte.
The induction of differentiation into mature adipocytes was carried out by partially modifying the method of Rubin C. S. et al. 3T3-L1 cells were suspended in a 10% fetal bovine serum-containing Dulbecco's modified Eagle's medium (manufactured by Sigma, D6046) containing 200 μM ascorbic acid so as to have a density of 4×10^3 cells/ml, and the suspension was put in each well of a 12-well microtiter plate in an amount of 2 ml per well. The cells were cultured at 37° C. for 7 days in the presence of 5% carbon dioxide gas. […]
As the evaluation of enhancing action on glucose uptake, and also as the evaluation of insulin-mimetic action, the amount of 2-deoxyglucose uptake into mature adipocytes stimulated with the sample (the above-mentioned extract fraction from Corchorus olitorius) in the adipocytes was determined. […]

[4] = test system: mature adipocytes (3T3-L1 cells); experiment: Synergistic action of ethanol extract fraction and low-concentration insulin to enhance glucose uptake; details: insulin alone, final concentration 0.01 μg/mL, 30 minutes; vs negative control
Description: As the evaluation of synergistic action of the ethanol extract fraction from Polygonum hydropiper prepared in Example 15 and a low-concentration insulin to enhance glucose uptake, the amount of 2-deoxyglucose uptake into mature adipocytes stimulated with the sample (the above-mentioned extract fraction from Polygonum hydropiper and insulin) was determined partly in accordance with the method described in Example 17. The mature adipocytes were prepared in accordance with the method described in Example 3.
After the termination of the culture, the medium was removed, and the cells were washed twice with a 0.1% (w/v) bovine serum albumin-containing Dulbecco's modified Eagle's medium. Thereafter, the cells were cultured overnight at 37° C. in the presence of 5% carbon dioxide gas. After the overnight culture, the cells were washed twice with a HEPES buffered saline (140 mM NaCl, 5 mM KCl, 2.5 mM MgSO4, 1 mM CaCl2, 20 mM HEPES-Na (pH 7.4)). The amount 0.9 mL of the same buffer was added thereto, and the cells were cultured at 37° C. for 45 minutes. […] Thereafter, 2-deoxy-[1,2-3H(N)]-glucose taken into the adipocytes was determined in the same manner as the method described in Example 3.

## C=C1[C@@H](C)[C@H]2[C@H](Cc3ccccc3)NC(=O)[C@]23OC(=O)/C=C/[C@H](O)CCC[C@@H](C)C/C=C/[C@H]3[C@@H]1O [cytochalasin B]
[1]; cytochalasin B 40 μM added at the same time as insulin or sample, in every group
  effect on 2-deoxy-[1,2-3H(N)]-glucose uptake: almost completely inhibited

## insulin
[2]
  induction of triglyceride biosynthesis (differentiation into adipocytes): induction of triglyceride biosynthesis could be also confirmed
[3]
  enhancement of 2-deoxy-[1,2-3H(N)]-glucose uptake: enhancement of 2-deoxy-[1,2^3H(N)]-glucose uptake was found
[4]
  enhancement of 2-deoxy-[1,2-3H(N)]-glucose uptake: enhancement of 2-deoxy-[1,2^3H(N)]-glucose uptake was found
[1]; positive control, final concentration 1 μg/mL, without cytochalasin B, vs negative control
  enhancement of 2-deoxy-[1,2-3H(N)]-glucose uptake: enhancement of 2-deoxy-[1,2^3H(N)]-glucose uptake was found

From US20060216362A1, “Remedy” (priority 2003, published 2006)
